How the values were obtained:
[1] = tested on: CAL-148; assay: normalised response (% of control), CellTiter-Glo; higher = more viable cells (100 = DMSO, 0 = benzethonium chloride kill control); details: incubation time: 72 h
Method in brief: (§1)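 Breast cancer cell lines were exposed for 72 h in 384-well plates to compound at 5 concentrations, 10-fold apart, covering a 10,000-fold range fixed for each compound. Plates were read for CellTox Green fluorescence and CellTiter-Glo luminescence and normalised to 0.1 % DMSO (100) and a positive kill control (0). Each value is the normalised signal at one concentration of the series.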

[2] = tested on: CAL-51; assay: as above; details: incubation time: 72 h
Method in brief: as §1

[3] = tested on: MDA-MB-453; assay: as above; details: incubation time: 72 h
Method in brief: as §1

[4] = tested on: MFM-223; assay: as above; details: incubation time: 72 h
Method in brief: as §1

[5] = tested on: BT-549; assay: as above; details: incubation time: 72 h
Method in brief: as §1

[6] = tested on: SK-BR-3; assay: as above; details: incubation time: 72 h
Method in brief: as §1

[7] = tested on: HCC1937; assay: as above; details: incubation time: 72 h
Method in brief: as §1

[8] = tested on: DU-4475; assay: as above; details: incubation time: 72 h
Method in brief: as §1

[9] = tested on: HCC1143; assay: as above; details: incubation time: 72 h
Method in brief: as §1

[10] = tested on: CAL-120; assay: as above; details: incubation time: 72 h
Method in brief: as §1

[11] = tested on: CAL-85-1; assay: as above; details: incubation time: 72 h
Method in brief: as §1

[12] = tested on: MDA-MB-436; assay: as above; details: incubation time: 72 h
Method in brief: as §1

[13] = tested on: BT-474; assay: as above; details: incubation time: 72 h
Method in brief: as §1

[14] = tested on: MDA-MB-468; assay: as above; details: incubation time: 72 h
Method in brief: as §1

[15] = tested on: MCF-10A; assay: as above; details: incubation time: 72 h
Method in brief: as §1

[16] = tested on: Hs578T; assay: as above; details: incubation time: 72 h
Method in brief: as §1

[17] = tested on: HDQ-P1; assay: as above; details: incubation time: 72 h
Method in brief: as §1

[18] = tested on: MDA-MB-231; assay: as above; details: incubation time: 72 h
Method in brief: as §1

[19] = tested on: HCC1599; assay: as above; details: incubation time: 72 h
Method in brief: as §1

[20] = tested on: HCC1599; details: 72 h
Method in brief: (§2)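 Per-plate normalisation used 0.1 % DMSO and a positive kill control. Breast cancer cell lines (20 µl suspension) were seeded into 384-well plates containing compound at 5 concentrations in 10-fold steps across a compound-specific 10,000-fold range, incubated for 72 h, and read first for CellTox Green fluorescence (485/520 nm), then for CellTiter-Glo luminescence. EC50 was fitted from the dose-response curves and censored at the top concentration.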

[21] = tested on: MDA-MB-453; details: 72 h
Method in brief: as §2

## CCCC(CCC)C(=O)O [Valproic acid] (10000 nM)
[1]
  normalised response: 87%
[2]
  normalised response: 95.9%
[3]
  normalised response: 93.7%
[4]
  normalised response: 96.1%
[5]
  normalised response: 107%
[6]
  normalised response: 96.1%
[7]
  normalised response: 95.9%
[8]
  normalised response: 98.2%
[9]
  normalised response: 108%
[10]
  normalised response: 111%
[11]
  normalised response: 100%
[12]
  normalised response: 105%
[13]
  normalised response: 102%
[14]
  normalised response: 95.3%
[15]
  normalised response: 106%
[16]
  normalised response: 99.3%
[17]
  normalised response: 102%
[18]
  normalised response: 103%
[19]
  normalised response: 87.8%

## CN(c1ccccc1CNc1nc(Nc2ccc3c(c2)CC(=O)N3)ncc1C(F)(F)F)S(C)(=O)=O
[20]
  EC50, CellTox Green: > 10000 nM

## CC(C)C[C@H](NC(=O)[C@H](Cc1ccccc1)NC(=O)c1cnccn1)B(O)O [Bortezomib]
[21]
  EC50, CellTox Green: 156 nM

## O=C(c1ccc(OCCN2CCCCC2)cc1)c1c(-c2ccc(O)cc2)sc2cc(O)ccc12 [Raloxifene]
[20]
  EC50, CellTox Green: > 10000 nM

## C#Cc1cccc(Nc2ncnc3cc(OC)c(OCCCCCCC(=O)NO)cc23)c1 [CUDC-101]
[21]
  EC50, CellTox Green: 271 nM

Reference: the supplement of paper PMC4862054
